# Experimental data as given in patent US20050209271A1, “Form of renzapride hydrochloride hydrate and uses thereof” (priority 2003, published 2005).
# Tests used:
# Type in all cases: physicochemical
# [1] = Intrinsic dissolution rate (IDR) of compressed discs in a static dissolution system
# Procedure: The samples were prepared as discs. Each disc was prepared by compressing the sample for 5 minutes at 2 tons of pressure. Each disc was transferred to a static dissolution system, whereby one surface of the disc is exposed to the dissolution medium. Six discs were prepared from each batch of material for duplicate intrinsic dissolution rate (IDR) determinations at pHs 2.2, 4.0 and 7.0. Dissolution samples (0.8 ml) were withdrawn at 5 minute intervals up to 60 minutes and samples were analysed. The amount of drug released (mg) is divided by the surface area of the disc (0.5 cm^2) to obtain an amount per unit area (mg cm^−2). The average of the duplicate determinations is plotted as a function of time (minutes). The IDR (mg cm^−2 minutes^−1) is given by the gradient (determined by linear regression) over the linear range of the release profile. When the dissolution into solution is deemed independent of pH, a pH independent IDR is calculated. The pH independent IDR is calculated by averaging the data for each time point at all of the pHs studied and calculating the linear regression on at least the first 5 data points. All IDR values are reported with the error encompassing the upper and lower 95% confidence limits of the linear regression. Linear regression analysis of the IDR data used all of the data points, as the release profiles are linear.
# [2] = Dynamic vapour sorption (DVS), adsorption/desorption cycles between 0 and 90% RH
# Excerpt: Each sample was placed into a sample pan and loaded into the DVS system. An initial weight reading was taken. The sample was then exposed to an atmosphere with a relative humidity (RH) of 0% to dry the sample and a dry weight reading taken. The sample was exposed to an adsorption/desorption cycle between 0 and 90% RH in 10% RH intervals. The change in weight data was fitted to an exponential expression that was used to automatically determine the end point of each stage, which then triggers the next increase/decrease in relative humidity. For the DVS traces, the stepped lines represent the relative humidity (RH) level in the Chamber. The curved line represents the weight change in the sample. The RH was controlled automatically and changes once the rate of change in weight of the sample is small.
# [3] = Storage stability at 25° C./60% relative humidity; settings: 25° C./60% RH
# Procedure: Samples of Form II renzapride hydrochloride hydrate were placed in storage under conditions of 25° C./60% relative humidity.
# [4] = Particle size distribution; settings: 5 kg batch
# Procedure: The Particle Size Distribution (PDS) of renzapride is measured according to the method detailed below. [table] • Vibration feed rate: 40% • Air pressure: 3.5 Bar Single measurement of each batch performed in triplicate.
smiles,measurement,setting,value
"COc1cc(N)c(Cl)cc1C(=O)NC1CCN2CCCC1C2.Cl (centres unmarked) [Form II, renzapride hydrochloride hydrate]",IDR independent (pH independent IDR),"[1]; data averaged over all pHs studied, error = 95% confidence limits",5.7 ± 0.3 mg/min/cm^2
same,IDR pH 2.2,"[1]; pH 2.2, error = 95% confidence limits of linear regression",5.5 ± 0.2 mg/min/cm^2
same,IDR pH 4.0,"[1]; pH 4.0, error = 95% confidence limits of linear regression",5.7 ± 0.2 mg/min/cm^2
same,IDR pH 7.0,"[1]; pH 7.0, error = 95% confidence limits of linear regression",5.9 ± 0.3 mg/min/cm^2
same,moisture taken up at 90% RH (DVS),[2]; chamber at 90% RH,~9.5 % (w/w)
same,uptake in moisture at 10% RH (DVS),"[2]; exposure to 10% RH, initial uptake",ca. 9 % (w/w)
same,Description,[3]; t = 0 months,White
same,Water content (by Karl Fisher),[3]; t = 0 months,8.9%(w/w)
same,Description,[3]; t = 6 months,White
same,Water content (by Karl Fisher),[3]; t = 6 months,8.6%(w/w)
same,Description,[3]; t = 12 months,White
same,Water content (by Karl Fisher),[3]; t = 12 months,8.8%(w/w)
same,Description,[3]; t = 18 months,White
same,Water content (by Karl Fisher),[3]; t = 18 months,8.8%(w/w)
same,Description,[3]; t = 24 months,White
same,Water content (by Karl Fisher),[3]; t = 24 months,8.8%(w/w)
same,Span = (d(0.9) − d(0.1))/d(0.5),[4],2.1
same,d (0.1),[4],11.5 μm
same,d(0.5),[4],47.1 μm
same,d(0.9),[4],109.0 μm
